Test results as given in article PMC9932091, “Two odorant receptors regulate 1-octen-3-ol induced oviposition behavior in the oriental fruit fly” (Communications Biology, 2023).

Molecular target: T1, BdorOR13a/BdorOrco (Bactrocera dorsalis, UniProt A0A0G2UKH1)
T1 construct: gene OR13a; full-length 441-residue OR co-expressed with BdorOrco; pcDNA3.1(+) with mCherry reporter in HEK 293 cells (also pT7Ts in Xenopus oocytes); with Odorant receptor coreceptor
T1 sequence (A0A0G2UKH1 1-441): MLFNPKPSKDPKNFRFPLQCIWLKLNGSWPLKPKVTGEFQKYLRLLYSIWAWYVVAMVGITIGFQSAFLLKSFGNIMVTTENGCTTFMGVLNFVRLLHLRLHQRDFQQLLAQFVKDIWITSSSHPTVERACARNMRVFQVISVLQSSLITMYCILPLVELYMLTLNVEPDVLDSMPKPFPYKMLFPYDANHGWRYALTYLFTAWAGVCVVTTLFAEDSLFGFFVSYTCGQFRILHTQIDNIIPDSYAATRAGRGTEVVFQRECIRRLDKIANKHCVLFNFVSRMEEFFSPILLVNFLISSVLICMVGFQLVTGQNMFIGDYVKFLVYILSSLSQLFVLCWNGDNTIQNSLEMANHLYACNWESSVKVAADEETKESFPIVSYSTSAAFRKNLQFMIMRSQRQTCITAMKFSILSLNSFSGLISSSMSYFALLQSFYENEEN
T1 sequence (B2Z9Z0 1-473 partner): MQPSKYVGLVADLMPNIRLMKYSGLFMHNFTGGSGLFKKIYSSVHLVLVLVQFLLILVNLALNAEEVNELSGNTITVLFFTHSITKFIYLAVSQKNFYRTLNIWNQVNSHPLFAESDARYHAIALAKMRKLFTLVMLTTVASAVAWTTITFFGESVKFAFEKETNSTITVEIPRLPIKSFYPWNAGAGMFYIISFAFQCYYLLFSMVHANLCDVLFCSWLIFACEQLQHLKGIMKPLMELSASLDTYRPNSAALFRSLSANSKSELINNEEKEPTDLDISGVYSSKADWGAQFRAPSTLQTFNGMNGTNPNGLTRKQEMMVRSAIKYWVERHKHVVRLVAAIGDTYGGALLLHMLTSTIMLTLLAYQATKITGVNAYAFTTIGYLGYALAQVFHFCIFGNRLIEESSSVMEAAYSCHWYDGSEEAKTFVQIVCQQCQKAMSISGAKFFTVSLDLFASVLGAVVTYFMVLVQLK
Experiment: calcium imaging (Fluo-4 AM), HEK […] cells
Format: cell-based

`C=CC(O)CCCCC` (stereo not shown) [1-octen-3-ol] showed an EC50 of 11.3 µM.
